According to patent US11779625B2, “Composition and application thereof in preparing product for protecting mitochondria” (INFINITUS (CHINA) COMPANY LTD., priority 2021, dated 2023):
“Also recorded” adds a separate entry of the source.

How the values were obtained:
[1] = tested on: Slc25a46−/− mouse embryonic fibroblasts; assay: MTT in-vitro cytotoxicity experiment (cell morphology and viability), Slc25a46−/− cells; format: cell-based; settings: 24 hours; for effect on cell viability/growth (MTT): Slc25a46−/− cells
Procedure: (§1) The MEF cells were derived from wild-type fetal mice (WT) and Slc25a46 homozygous fetal mice (Slc25a46−/−). Pregnant mice were anesthetized and killed, and dissected to obtain mouse embryos, and bodies of fetal mice were obtained, and washed with PBS for 3 times. Clean mouse embryonal tissues were transferred into a culture dish, and cut into pieces, 2 mL of trypsin was added into the tissue pieces, and continuously cut into pieces for several minutes. Then, 5 mL of trypsin was added into the culture dish above, and blown up and down with a straw vigorously, and the culture dish was put into an incubator for incubation for 20 minutes to 30 minutes. The tissues cut into pieces were taken out of the incubator, and added with about 20 mL of MEF medium. A tissue mixture was transferred into each flask and placed into an incubator for overnight incubation. Then, growth of fibroblasts was observed regularly and the culture medium was replaced. When the fibroblasts covered 90% of the culture flask, the mouse embryonic fibroblasts were collected for subsequent experiment.
(§2) 100 uL of WT mouse cells and Slc25a46−/− mouse cells with a cell concentration of 3.5×10^5 cells/mL were inoculated into a 96-well plate, and cultured in a CO2 incubator at 37° C. for 24 hours. […] An absorbance at 570 nm was detected with a multi-functional microplate scanner, and effects of test solutions with different concentrations on cell viability were calculated with a blank control as 100%.

[2] = tested on: WT mouse embryonic fibroblasts; assay: MTT in-vitro cytotoxicity experiment (cell morphology and viability), WT cells; format: cell-based; settings: 24 hours; for effect on cell viability/growth (MTT): WT cells
Procedure: as §1, §2

Slc25a46−/− mice [3] = assay: SOD enzyme activity in liver tissues after intragastric intervention; format: in vivo, mouse; settings: intragastric every day for 10 days, Example 400, Comparative example 1 100, 2 244, 3 56, 4 500 mg/kg
Procedure: Animal experimental subjects were Slc25a46 knockout (Slc25a46−/−) mice of 1 month old, which were divided into a blank solvent control group (3 mice) and experimental groups (4 mice in each group). Under a same SPF level, the mice were fed with a full-nutrient feed prepared according to an AIN93G formula of Jiangsu Xietong Biology Co., Ltd., and subjected to intragastric administration every day, which lasted for a period of 10 days. […] The blank solvent control group was administered intragastrically with solvent water. After the intragastric administration experiment, brain tissues and liver tissues of the mice were collected for physiological and biochemical detections respectively, and an oxidative stress level and an ability of delaying aging were analyzed.
9 times volume of ice normal saline was added according to a ratio of a tissue weight (g) to a tissue volume (ml) of 1:9, and the tissues were cut into pieces with a surgical scissor, prepared into 10% tissue homogenate with a homogenizer (the homogenation lasted 10 seconds once, and was continuously carried out for 3 times to 5 times at intervals of 5 seconds on ice), and centrifuged at 2500 rpm to 3000 rpm for 10 minutes. A supernatant was taken for subsequent determination. […]

Slc25a46−/− mice [4] = assay: NAMPT enzyme activity in liver tissues (ELISA kit); format: in vivo, mouse; settings: intragastric every day for 10 days, Example 400, Comparative example 1 100, 2 244, 3 56, 4 500 mg/kg
Procedure: A certain amount of liver tissues of the mice were homogenized, and a supernatant was taken. […] Marker wells, blank wells and sample wells were provided, 50 μL of markers with different concentrations were added into the marker wells, 50 μL of to-be-tested sample was added into the sample wells, and 50 μL of sample diluent was added into the blank wells. […] 50 μL of substrate A and 50 μL of substrate B were respectively added into each well, and an OD value of each well at a wavelength of 450 nm was measured within 15 minutes. Data was recorded, and statistical analysis was made with Prism software.

[5] = high concentration (1,000 μg/mL to 2,000 μg/mL)

NC(=O)c1cccnc1 [Comparative example 4, nicotinamide]
effect on cell morphology ([1]; Slc25a46−/− MEF cells, up to 2,000 μg/mL): no effect on the cell morphology
effect on cell viability/growth (MTT) ([1]; 125 μg/mL to 2,000 μg/mL): no effect on the viability of the Slc25a46−/− cells and a viability of the WT cells
effect on cell viability/growth (MTT) [1, 5]: promotes growth of the Slc25a46−/− cells and the WT cells, without a concentration effect
effect on cell morphology ([2]; WT MEF cells, up to 2,000 μg/mL): no effect on the cell morphology
effect on cell viability/growth (MTT) ([2]; 125 μg/mL to 2,000 μg/mL): no effect on the viability of the Slc25a46−/− cells and a viability of the WT cells
effect on cell viability/growth (MTT) [2, 5]: promotes growth of the Slc25a46−/− cells and the WT cells, without a concentration effect; also recorded: promote proliferation of the WT cells
SOD enzyme activity-Liver tissue (Slc25a46−/− mice [3]): 2.22 ± 0.02 U/mgprot
NAMPT enzyme activity-Liver tissue (Slc25a46−/− mice [4]): 0.32 ± 0.01 ng/mg protein
